Data: patent publication US20260062422A1 (Halda Therapeutics OpCo, Inc., priority 2022, published 2026)

How the values were obtained:
[1] = test system: T-Rex 293 cell line SC3 cells having increased expression of androgen receptor protein due to exposure to doxycycline; test: Cellular growth inhibition, T-Rex 293 SC3 cells with doxycycline (androgen receptor induced), CellTiter-Glo; format: cell-based; details: T-Rex 293 SC3 cells with 10 ng/mL doxycycline (increased androgen receptor expression)
Summary of the method: (§1)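 Luminescence read-out (CellTiter-Glo 2.0) after 72 h compound exposure; GI50 by four-parameter nonlinear regression, baseline set at zero luminescence. SC3 cells, a doxycycline-inducible wild-type AR clone of T-Rex 293, were cultured ±10 ng/mL doxycycline in charcoal-dextran FBS medium.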

[2] = test system: T-Rex 293 cell line SC3 cells lacking increased expression of androgen receptor protein; test: Cellular growth inhibition, T-Rex 293 SC3 cells without doxycycline, CellTiter-Glo; format: cell-based; details: T-Rex 293 SC3 cells not exposed to doxycycline, CellTiter-Glo 2.0
Summary of the method: as §1

[3] = test system: T47D cells; test: Cellular growth inhibition assay for T47D cells, CellTiter-Glo; format: cell-based, human; details: 72 hours treatment, CellTiter-Glo 2.0 cell viability
Summary of the method: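 Cells are plated at 3000/well and allowed 24 h before treatment. Test compound in medium containing 0.5% DMSO is then added, with DMSO-only wells as negative control, and plates are incubated 72 h at 37 °C. ATP luminescence (CellTiter-Glo 2.0) is then fitted to four parameters to derive GI50.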

Row | GI50 [3] [nM] | Structure (SMILES) | GI50 ([1]; 72 h) [nM] | GI50 ([2]; 72 h) [nM] | GI50 ([1]; 72 hours) [nM] | GI50 ([2]; 72 hours) [nM]
1 |  | Cc1sc2c(c1C)C(c1ccc(Cl)cc1)=N[C@@H](CC(=O)NCCOCCOCCOCCOCCN(C)c1ncc(C(=O)N[C@H]3C(C)(C)[C@H](Oc4ccc(C#N)c(Cl)c4)C3(C)C)cn1)c1nnc(C)n1-2 [Compound I-3, N-((1r,3r)-3-(3-chloro-4-cyanophenoxy)-2,2,4,4-tetramethylcyclobutyl)-2-((1-((S)-4-(4-chlorophenyl)-2,3,9-trimethyl-6H-thieno[3,2-f][1,2,4]triazolo[4,3-a][1,4]diazepin-6-yl)-2-oxo-6,9,12,15-tetraoxa-3-azaheptadecan-17-yl)(methyl)amino)pyrimidine-5-carboxamide] | < 500 | > 3000 |  | 
2 |  | Cc1sc2c(c1C)C(c1ccc(Cl)cc1)=N[C@@H](CC(=O)NCCOCCOCCOCCOCCOCCOCCN(C)c1ncc(C(=O)N[C@H]3C(C)(C)[C@H](Oc4ccc(C#N)c(Cl)c4)C3(C)C)cn1)c1nnc(C)n1-2 [Compound I-4] | < 500 | > 3000 |  | 
3 |  | Cc1sc2c(c1C)C(c1ccc(Cl)cc1)=N[C@@H](CC(=O)NCCCN1CCN(CCCN(C)c3ncc(C(=O)N[C@H]4C(C)(C)[C@H](Oc5ccc(C#N)c(Cl)c5)C4(C)C)cn3)CC1)c1nnc(C)n1-2 [Compound I-5, N-((1r,3r)-3-(3-chloro-4-cyanophenoxy)-2,2,4,4-tetramethylcyclobutyl)-2-((3-(4-(3-(2-((S)-4-(4-chlorophenyl)-2,3,9-trimethyl-6H-thieno[3,2-f][1,2,4]triazolo[4,3-a][1,4]diazepin-6-yl)acetamido)propyl)piperazin-1-yl)propyl)(methyl)amino)pyrimidine-5-carboxamide] | < 500 | > 3000 |  | 
4 |  | Cc1sc2c(c1C)C(c1ccc(Cl)cc1)=N[C@@H](CC(=O)NCCOC1CCN(c3ncc(C(=O)N[C@H]4C(C)(C)[C@H](Oc5ccc(C#N)c(Cl)c5)C4(C)C)cn3)CC1)c1nnc(C)n1-2 [Compound I-6] | < 500 | 500 to 1500 |  | 
5 |  | Cc1sc2c(c1C)C(c1ccc(Cl)cc1)=N[C@H](CC(=O)NCCOCCOCCOCCOCCOCCOCCOC1CCN(c3ncc(C(=O)N[C@H]4C(C)(C)[C@H](Oc5ccc(C#N)c(Cl)c5)C4(C)C)cn3)CC1)c1nnc(C)n1-2 [Compound I-9] | < 500 | 1500 to 3000 |  | 
6 |  | Cc1sc2c(c1C)C(c1ccc(Cl)cc1)=N[C@@H](CC(=O)NCCCN1CCN(CCCOC3CCN(c4ncc(C(=O)N[C@H]5C(C)(C)[C@H](Oc6ccc(C#N)c(Cl)c6)C5(C)C)cn4)CC3)CC1)c1nnc(C)n1-2 [Compound I-10] | < 500 | 1500 to 3000 |  | 
7 |  | Cc1sc2c(c1C)C(c1ccc(Cl)cc1)=N[C@@H](CC(=O)NCCOCCOCCOCCOC1CCN(c3ncc(C(=O)N[C@H]4C(C)(C)[C@H](Oc5ccc(C#N)c(Cl)c5)C4(C)C)cn3)CC1)c1nnc(C)n1-2 [Compound I-11] | < 500 | 1500 to 3000 |  | 
8 |  | Cc1sc2c(c1C)C(c1ccc(Cl)cc1)=N[C@H](CC(=O)NCCOCCOCCOCCOC1CCN(c3ncc(C(=O)N[C@H]4C(C)(C)[C@H](Oc5ccc(C#N)c(Cl)c5)C4(C)C)cn3)CC1)c1nnc(C)n1-2 [Compound I-13] | > 3000 | > 3000 |  | 
9 |  | Cc1sc2c(c1C)C(c1ccc(Cl)cc1)=N[C@@H](CC(=O)NCCOCCOCCOCC1CCN(c3ncc(C(=O)N[C@H]4C(C)(C)[C@H](Oc5ccc(C#N)c(Cl)c5)C4(C)C)cn3)CC1)c1nnc(C)n1-2 [Compound I-17] | < 500 | 500 to 1500 |  | 
10 |  | Cc1sc2c(c1C)C(c1ccc(Cl)cc1)=N[C@@H](CC(=O)NCCOCCOCCOCC1CN(c3ncc(C(=O)N[C@H]4C(C)(C)[C@H](Oc5ccc(C#N)c(Cl)c5)C4(C)C)cn3)C1)c1nnc(C)n1-2 [Compound I-18] | 500 to 1500 | 1500 to 3000 |  | 
11 |  | Cc1sc2c(c1C)C(c1ccc(Cl)cc1)=N[C@H](CC(=O)NCCOCCOCCOCCOCCN(C)c1ncc(C(=O)N[C@H]3C(C)(C)[C@H](Oc4ccc(C#N)c(Cl)c4)C3(C)C)cn1)c1nnc(C)n1-2 [Compound I-19] | > 3000 | > 3000 |  | 
12 |  | Cc1sc2c(c1C)C(c1ccc(Cl)cc1)=N[C@@H](CC(=O)NCCCCCOC1CCN(c3ncc(C(=O)N[C@H]4C(C)(C)[C@H](Oc5ccc(C#N)c(Cl)c5)C4(C)C)cn3)CC1)c1nnc(C)n1-2 [Compound I-22, N-((1r,3r)-3-(3-chloro-4-cyanophenoxy)-2,2,4,4-tetramethylcyclobutyl)-2-(4-((5-(2-((S)-4-(4-chlorophenyl)-2,3,9-trimethyl-6H-thieno[3,2-A][1,2,4]triazolo[4,3-a][1,4]diazepin-6-yl)acetamido)pentyl)oxy)piperidin-1-yl)pyrimidine-5-carboxamide] |  |  | < 500 | > 3000
13 |  | Cc1sc2c(c1C)C(c1ccc(Cl)cc1)=N[C@@H](CC(=O)NCCCCCCCOC1CCN(c3ncc(C(=O)N[C@H]4C(C)(C)[C@H](Oc5ccc(C#N)c(Cl)c5)C4(C)C)cn3)CC1)c1nnc(C)n1-2 [Compound I-24] | < 500 | > 3000 |  | 
14 |  | Cc1sc2c(c1C)C(c1ccc(Cl)cc1)=N[C@@H](CC(=O)NCCCCOCCOC1CCN(c3ncc(C(=O)N[C@H]4C(C)(C)[C@H](Oc5ccc(C#N)c(Cl)c5)C4(C)C)cn3)CC1)c1nnc(C)n1-2 [Compound I-28] | < 500 | 500 to 1500 |  | 
15 |  | Cc1sc2c(c1C)C(c1ccc(OCCOCCOC3CCN(c4ncc(C(=O)N[C@H]5C(C)(C)[C@H](Oc6ccc(C#N)c(Cl)c6)C5(C)C)cn4)CC3)cc1)=N[C@@H](CC(=O)O)c1nnc(C)n1-2 [Compound I-39] | 500 to 1500 | > 3000 |  | 
16 |  | Cc1sc2c(c1C)C(c1ccc(OCCOCCOCCOC3CCN(c4ncc(C(=O)N[C@H]5C(C)(C)[C@H](Oc6ccc(C#N)c(Cl)c6)C5(C)C)cn4)CC3)cc1)=N[C@@H](CC(=O)O)c1nnc(C)n1-2 [Compound I-40] | > 3000 | > 3000 |  | 
17 |  | Cc1sc2c(c1C)C(c1cccc(OCCOCCOC3CCN(c4ncc(C(=O)N[C@H]5C(C)(C)[C@H](Oc6ccc(C#N)c(Cl)c6)C5(C)C)cn4)CC3)c1)=N[C@@H](CC(=O)O)c1nnc(C)n1-2 [Compound I-42] | 500 to 1500 | > 3000 |  | 
18 |  | Cc1sc2c(c1C)C(c1cccc(OCCOCCOCCOC3CCN(c4ncc(C(=O)N[C@H]5C(C)(C)[C@H](Oc6ccc(C#N)c(Cl)c6)C5(C)C)cn4)CC3)c1)=N[C@@H](CC(=O)O)c1nnc(C)n1-2 [Compound I-43] | > 3000 | > 3000 |  | 
19 |  | CCNC(=O)C[C@@H]1N=C(c2ccc(OCCOCCOCCOC3CCN(c4ncc(C(=O)N[C@H]5C(C)(C)[C@H](Oc6ccc(C#N)c(Cl)c6)C5(C)C)cn4)CC3)cc2)c2c(sc(C)c2C)-n2c(C)nnc21 [Compound I-45, N-((1r,3r)-3-(3-chloro-4-cyanophenoxy)-2,2,4,4-tetramethylcyclobutyl)-2-(4-(2-(2-(2-(4-((S)-6-(2-(ethylamino)-2-oxoethyl)-2,3,9-trimethyl-6H-thieno[3,2-f][1,2,4]triazolo[4,3-a][1,4]diazepin-4-yl)phenoxy)ethoxy)ethoxy)ethoxy)piperidin-1-yl)pyrimidine-5-carboxamide] | < 500 | 500 to 1500 |  | 
20 |  | CCNC(=O)C[C@@H]1N=C(c2cccc(OCCOCCOC3CCN(c4ncc(C(=O)N[C@H]5C(C)(C)[C@H](Oc6ccc(C#N)c(Cl)c6)C5(C)C)cn4)CC3)c2)c2c(sc(C)c2C)-n2c(C)nnc21 [Compound I-47, N-((1r,3r)-3-(3-chloro-4-cyanophenoxy)-2,2,4,4-tetramethylcyclobutyl)-2-(4-(2-(2-(3-((S)-6-(2-(ethylamino)-2-oxoethyl)-2,3,9-trimethyl-6H-thieno[3,2-f][1,2,4]triazolo[4,3-a][1,4]diazepin-4-yl)phenoxy)ethoxy)ethoxy)piperidin-1-yl)pyrimidine-5-carboxamide] | < 500 | 500 to 1500 |  | 
21 |  | CCNC(=O)C[C@@H]1N=C(c2cccc(OCCOCCOCCOC3CCN(c4ncc(C(=O)N[C@H]5C(C)(C)[C@H](Oc6ccc(C#N)c(Cl)c6)C5(C)C)cn4)CC3)c2)c2c(sc(C)c2C)-n2c(C)nnc21 [Compound I-48, N-((1r,3r)-3-(3-chloro-4-cyanophenoxy)-2,2,4,4-tetramethylcyclobutyl)-2-(4-(2-(2-(2-(3-((S)-6-(2-(ethylamino)-2-oxoethyl)-2,3,9-trimethyl-6H-thieno[3,2-f][1,2,4]triazolo[4,3-a][1,4]diazepin-4-yl)phenoxy)ethoxy)ethoxy)ethoxy)piperidin-1-yl)pyrimidine-5-carboxamide] | < 500 | 500 to 1500 |  | 
22 |  | CCNC(=O)C[C@@H]1N=C(c2ccc(N3CCC(N(C)C4CCN(c5ncc(C(=O)N[C@H]6C(C)(C)[C@H](Oc7ccc(C#N)c(Cl)c7)C6(C)C)cn5)CC4)CC3)cc2)c2c(sc(C)c2C)-n2c(C)nnc21 [Compound I-113] | < 500 | 1500 to 3000 |  | 
23 |  | CCNC(=O)C[C@@H]1N=C(c2ccc(N3CCC(OC4CCN(c5ncc(C(=O)N[C@H]6C(C)(C)[C@H](Oc7ccc(C#N)c(Cl)c7)C6(C)C)cn5)CC4)CC3)cc2)c2c(sc(C)c2C)-n2c(C)nnc21 [Compound I-114] | < 500 | 500 to 1500 |  | 
24 | < 500 | Cc1sc2c(c1C)C(c1ccc(CC3CC4(CCN(c5ncc(C(=O)N[C@H]6C(C)(C)[C@H](Oc7ccc(C#N)c(Cl)c7)C6(C)C)cn5)CC4)C3)cc1)=N[C@@H](C)c1nnc(C)n1-2 [Compound I-303] |  |  |  | 
